Data set [1] is described as follows: mouse liver microsome metabolic stability. To be noted: for T1/2 Ratio: normalization with respect to internal control (propranolol); for half-life / CLint scaled: mouse. How it is done:
SGC-GAK-1 (1) was incubated with MLMs in the presence or absence of added NADPH, and the compound was quantified at various time points over an hour.
The metabolic stability of the 4-anilinoquinolines (8–13) were evaluated in MLMs (Table 1). Half-lives for metabolic clearance were normalized to propranolol in each experimental run to control for variations in the MLM preparations.
(Liver microsomes are a subcellular fraction often used to study metabolism.)

Data set [2] deals with T1, GAK (Homo sapiens, UniProt O14976).
T1 sequence (O14976 1-1311): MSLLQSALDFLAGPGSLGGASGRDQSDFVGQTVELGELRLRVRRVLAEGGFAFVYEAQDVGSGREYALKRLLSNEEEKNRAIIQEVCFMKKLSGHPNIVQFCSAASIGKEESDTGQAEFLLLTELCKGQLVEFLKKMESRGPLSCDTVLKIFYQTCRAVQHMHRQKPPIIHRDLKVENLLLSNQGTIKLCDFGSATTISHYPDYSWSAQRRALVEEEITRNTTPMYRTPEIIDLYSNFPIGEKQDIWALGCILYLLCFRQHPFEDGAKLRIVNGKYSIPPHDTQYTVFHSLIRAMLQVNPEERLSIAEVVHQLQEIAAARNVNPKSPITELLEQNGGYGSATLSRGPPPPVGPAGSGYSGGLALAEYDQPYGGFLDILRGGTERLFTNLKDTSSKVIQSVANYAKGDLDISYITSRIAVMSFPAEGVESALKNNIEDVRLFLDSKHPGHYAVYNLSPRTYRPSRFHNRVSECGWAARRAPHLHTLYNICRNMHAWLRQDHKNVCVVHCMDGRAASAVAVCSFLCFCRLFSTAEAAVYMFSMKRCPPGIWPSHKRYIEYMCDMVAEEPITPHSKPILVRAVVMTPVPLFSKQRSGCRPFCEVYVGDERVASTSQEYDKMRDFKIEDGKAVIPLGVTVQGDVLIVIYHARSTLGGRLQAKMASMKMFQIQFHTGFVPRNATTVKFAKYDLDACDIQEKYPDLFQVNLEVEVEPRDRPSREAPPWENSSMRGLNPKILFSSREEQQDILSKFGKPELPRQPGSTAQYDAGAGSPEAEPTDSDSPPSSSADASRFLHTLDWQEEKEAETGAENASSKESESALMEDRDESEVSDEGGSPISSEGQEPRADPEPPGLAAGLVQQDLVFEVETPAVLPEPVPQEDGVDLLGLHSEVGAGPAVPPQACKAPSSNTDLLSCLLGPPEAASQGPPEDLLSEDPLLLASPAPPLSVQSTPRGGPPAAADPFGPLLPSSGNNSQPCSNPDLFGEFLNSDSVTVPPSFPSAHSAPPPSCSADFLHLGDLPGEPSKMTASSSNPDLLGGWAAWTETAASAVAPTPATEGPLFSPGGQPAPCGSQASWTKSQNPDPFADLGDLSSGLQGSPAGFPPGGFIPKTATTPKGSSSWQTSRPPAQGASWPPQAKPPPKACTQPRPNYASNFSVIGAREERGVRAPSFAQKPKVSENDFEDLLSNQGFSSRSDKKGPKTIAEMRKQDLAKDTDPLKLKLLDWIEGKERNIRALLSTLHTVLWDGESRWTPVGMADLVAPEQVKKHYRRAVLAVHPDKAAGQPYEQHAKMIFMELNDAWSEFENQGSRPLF
As to the kind of experiment: live cell NanoBRET target engagement assay. The class given is cell-based. To be noted: for IC50: nanoBRET, mean average, n = 2.

Data set [3] deals with STK16 (Homo sapiens, UniProt O75716). Kind of data set: NAK family TR-FRET binding displacement assay. To be noted: NAK family FRET screening; read-out: Binding displacement assay STK16 Ki.
The nature of data set [4]: Kinetic Solubility. The class given is physicochemical. Particulars: pH 7.4, aqueous buffer, kinetic from dmso stock, PBS pH7.4 (100 µM).
The nature of data set [5]: metabolite identification in mouse liver microsomes. The method, then:
After centrifugation, the supernatant was subjected to analysis by LCMS, and structures of metabolites were assigned on the basis of their molecular weight and fragmentation pattern.
Compounds were incubated at a concentration of 10 µM with mouse liver microsomes in the presence of an excess of NADPH.
1.1. General Numbering of Metabolites
The metabolites are numbered according to their retention times in the gradient LC-MS analysis in positive […]
ion mode. […] The M number increases […]
consecutively for metabolites with increasing retention time.
To avoid confusion, labelled retention times of a metabolite peak in different injections are the same, which may lead to mismatch between labelled retention time and actual retention time.
General Strategy for Metabolite Identification
The vehicle control and study samples were injected into LC-MS with gradient elution using a Q1 scan method. Searching for potential metabolites was then performed using LightSight software (Applied Biosystems/MDS Sciex) by comparing a total ion current chromatogram of Q1 scan from a study sample with a chromatogram from the corresponding vehicle control sample. The study sample was then injected again to obtain the product ion spectra of potential metabolites using product ion scan methods. The fragmentation patterns of the potential metabolites were then compared to the fragmentation of the parent compound to elucidate the structures of the metabolites.
The assignment of fragments is shown
2.2. Identification of Metabolites in Mouse Liver Microsomal Incubation

The target of data set [6] is AAK1 (Homo sapiens, UniProt Q2M2I8). Kind of data set: NAK family TR-FRET binding displacement assay. To be noted: NAK family FRET screening. On the technique in general: Time-resolved FRET reads energy transfer from a long-lived donor to a nearby acceptor.
In data set [7] the target is BMP2K (Homo sapiens, UniProt Q9NSY1). As to the kind of experiment: NAK family TR-FRET binding displacement assay.
Data set [8] addresses T1, GAK. As to the kind of experiment: TR-FRET ligand-binding displacement assay. To be noted: TR-FRET assay; read-out: Biochemical GAK Ki.
The target in data set [9] is EGFR. To be noted: read-out: EGFR KD; cited from earlier work.
Data set [10] deals with CYP3A4. Also on record: method as in PMID 18936109. To be noted: cited from earlier work.
Data set [11] relates to CYP2C8. The arrangement: method as in PMID 18936109. To be noted: cited from earlier work.
Data set [12] concerns CYP2D6. Also on record: method as in PMID 18936109. Particulars: cited from earlier work.
Data set [13] deals with CYP1A2. The arrangement: method as in PMID 18936109. Particulars: cited from earlier work.
In data set [14] the test system is CYP2B6. Also on record: method as in PMID 18936109. Particulars: cited from earlier work.
For data set [15], the system named is CYP2C19. The arrangement: method as in PMID 18936109. To be noted: cited from earlier work.
Data set [16] deals with CYP2A6. Also on record: method as in PMID 18936109. To be noted: cited from earlier work.
Data set [17] has as its system CYP2C9. Also on record: method as in PMID 18936109. Particulars: cited from earlier work.
The mark [18] stands for this setting: mouse liver microsomes, T1/2 (min), mouse liver microsomes with NADPH, mean average, n = 2.
The mark [19] stands for this setting: read-out: Kinetic Solubility µM.
Setting [20] is: read-out: Kinetic Solubility µg/mL.

Like-named read-outs stand apart in the source and are kept apart here.

Chain of AAK1 (Q2M2I8 whole entry): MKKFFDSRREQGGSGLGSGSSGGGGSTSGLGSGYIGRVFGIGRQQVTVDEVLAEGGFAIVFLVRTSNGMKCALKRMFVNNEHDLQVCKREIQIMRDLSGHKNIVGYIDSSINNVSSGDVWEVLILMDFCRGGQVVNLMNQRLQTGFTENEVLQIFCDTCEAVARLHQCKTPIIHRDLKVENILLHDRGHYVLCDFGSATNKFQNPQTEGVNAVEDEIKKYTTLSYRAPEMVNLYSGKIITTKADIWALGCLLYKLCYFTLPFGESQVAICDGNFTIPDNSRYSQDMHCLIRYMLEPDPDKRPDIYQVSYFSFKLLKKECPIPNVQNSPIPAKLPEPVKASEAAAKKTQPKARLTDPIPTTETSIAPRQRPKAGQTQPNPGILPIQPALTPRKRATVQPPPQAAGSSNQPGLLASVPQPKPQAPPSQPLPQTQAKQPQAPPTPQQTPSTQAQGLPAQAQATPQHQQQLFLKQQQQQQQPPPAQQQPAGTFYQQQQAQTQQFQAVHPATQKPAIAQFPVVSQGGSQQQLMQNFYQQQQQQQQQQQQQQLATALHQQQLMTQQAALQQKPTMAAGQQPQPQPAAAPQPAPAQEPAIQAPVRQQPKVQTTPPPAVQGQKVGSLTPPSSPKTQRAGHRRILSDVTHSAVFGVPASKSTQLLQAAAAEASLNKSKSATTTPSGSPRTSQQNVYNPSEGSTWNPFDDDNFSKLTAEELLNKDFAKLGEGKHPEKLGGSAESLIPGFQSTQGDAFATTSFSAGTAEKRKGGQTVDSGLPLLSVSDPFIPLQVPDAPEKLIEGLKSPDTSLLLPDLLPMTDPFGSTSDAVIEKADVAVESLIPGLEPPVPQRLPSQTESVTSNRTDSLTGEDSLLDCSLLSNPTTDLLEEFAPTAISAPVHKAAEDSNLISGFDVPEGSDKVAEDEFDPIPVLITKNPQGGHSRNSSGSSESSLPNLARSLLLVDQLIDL
Chain of STK16 (O75716 whole entry): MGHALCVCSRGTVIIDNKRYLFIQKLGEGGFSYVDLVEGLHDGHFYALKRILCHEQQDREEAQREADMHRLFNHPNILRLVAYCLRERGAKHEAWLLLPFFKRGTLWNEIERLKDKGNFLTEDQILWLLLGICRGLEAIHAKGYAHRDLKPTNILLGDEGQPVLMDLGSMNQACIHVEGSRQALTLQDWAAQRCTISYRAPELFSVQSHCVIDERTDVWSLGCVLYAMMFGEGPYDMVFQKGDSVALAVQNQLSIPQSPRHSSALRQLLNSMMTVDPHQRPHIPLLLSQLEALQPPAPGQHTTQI
Chain of BMP2K (Q9NSY1 whole entry): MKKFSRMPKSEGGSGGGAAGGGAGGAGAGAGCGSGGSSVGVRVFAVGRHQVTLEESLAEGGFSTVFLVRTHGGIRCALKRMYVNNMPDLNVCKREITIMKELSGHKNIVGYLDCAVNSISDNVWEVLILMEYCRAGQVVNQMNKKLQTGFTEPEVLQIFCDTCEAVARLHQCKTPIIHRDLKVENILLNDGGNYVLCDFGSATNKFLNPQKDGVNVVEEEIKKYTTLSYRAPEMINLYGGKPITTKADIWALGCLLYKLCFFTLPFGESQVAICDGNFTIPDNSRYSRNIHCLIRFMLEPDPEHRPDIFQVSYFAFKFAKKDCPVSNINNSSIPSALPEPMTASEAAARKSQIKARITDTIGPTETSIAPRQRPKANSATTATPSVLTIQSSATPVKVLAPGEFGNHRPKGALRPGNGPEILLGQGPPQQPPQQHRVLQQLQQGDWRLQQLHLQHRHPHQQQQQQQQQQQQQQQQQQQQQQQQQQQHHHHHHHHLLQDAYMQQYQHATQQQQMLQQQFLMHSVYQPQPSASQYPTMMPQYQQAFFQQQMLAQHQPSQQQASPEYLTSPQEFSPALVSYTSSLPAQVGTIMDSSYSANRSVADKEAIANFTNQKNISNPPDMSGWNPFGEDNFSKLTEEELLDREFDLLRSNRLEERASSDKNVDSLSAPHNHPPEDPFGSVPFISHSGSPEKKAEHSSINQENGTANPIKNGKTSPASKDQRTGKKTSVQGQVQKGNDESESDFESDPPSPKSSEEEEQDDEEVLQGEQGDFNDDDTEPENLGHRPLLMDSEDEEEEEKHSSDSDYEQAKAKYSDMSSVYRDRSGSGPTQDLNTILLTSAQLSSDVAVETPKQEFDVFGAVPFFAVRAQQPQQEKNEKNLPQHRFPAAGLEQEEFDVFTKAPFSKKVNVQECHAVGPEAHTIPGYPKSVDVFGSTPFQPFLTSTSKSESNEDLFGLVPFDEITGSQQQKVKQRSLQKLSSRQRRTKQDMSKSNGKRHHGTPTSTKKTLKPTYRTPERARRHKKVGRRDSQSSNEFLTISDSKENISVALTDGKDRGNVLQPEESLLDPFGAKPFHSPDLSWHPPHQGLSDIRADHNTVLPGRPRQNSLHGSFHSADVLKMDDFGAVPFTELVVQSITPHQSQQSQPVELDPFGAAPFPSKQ

The half-life is the time needed for the level to fall by half in the phase considered. Read a low half-life as rapid decline. As usually defined, the IC50 is the point on the concentration scale where inhibition reaches its midpoint. Usually Ki stands for a dissociation constant, usually derived from enzyme kinetics or from competition with a known ligand. Take `Fc1ccc(F)c(Nc2ccnc3ccc(Br)cc23)c1` [Compound 10, 6-Bromo-N-(2,5-difluorophenyl)quinolin-4-amine]: the “T1/2 Ratio” value in [1] (mouse liver microsomes) was found to be 0.17. In [1] (setting [18]), this molecule registered a half-life of 1.7 min. Half-maximal inhibition in data set [2] (IC50) was put at 0.87 µM. Further, the Ki worked out at 6.2 µM in data set [3], 3.8 µM in data set [6], 9.8 µM in [7] and 0.015 µM in data set [8]. For the same molecule, the solubility kinetic in data set [4] (setting [19]) was found to be 2.2 µM; in data set [4] (setting [20]), 0.7 µg/mL. Further, the “Primary Metabolism Site” value in data set [5] is reported as “Aniline”. Besides, in data set [5], the “Primary Metabolite Mass” value was “Parent + O”.
In general, Kd refers to the free concentration of one partner at which half of the binding sites on the other are occupied at equilibrium, for simple one-to-one binding. For `C#Cc1cccc(Nc2ncnc3cc(OCCOC)c(OCCOC)cc23)c1` [Erlotinib, erlotinib], the Kd in data set [9] is 0.0007 µM.
As usually defined, the CLint scaled is a measure of how fast metabolising enzymes remove a compound, apart from limits set by blood flow. For `Brc1ccc2nccc(Nc3cccc4c3OCO4)c2c1` [Compound 9, N-(Benzo[d][1,3]dioxol-4-yl)-6-bromoquinolin-4-amine], the “T1/2 Ratio (+) ABT” value in data set [1] (mouse liver microsomes, (+) ABT, normalized to propranolol) was 0.13. Moreover, in [1] (mouse liver microsomes, (−) ABT, normalized to propranolol), the “T1/2 Ratio (−) ABT” value is 0.05. Moreover, the “T1/2 Ratio” value in data set [1] (mouse liver microsomes) came out at 1.9. For the same molecule, the CLint scaled in data set [1] (mouse liver microsomes, Clint (mL/min/kg) (+) ABT, mouse liver microsomes, (+) ABT) was determined as 188 L/h/kg; in [1] (mouse liver microsomes, Clint (mL/min/kg) (−) ABT, (−) ABT), 457 L/h/kg. For the same molecule, the half-life is 1.8 min in data set [1] (mouse liver microsomes, T1/2 (min) (+) ABT, mouse liver microsomes, (+) ABT, mean average, n = 2); 0.74 min in [1] (mouse liver microsomes, T1/2 (min) (−) ABT, (−) ABT, mean average, n = 2); 8.9 min in data set [1] (setting [18]). Also, 0.022 µM corresponded to half-maximal inhibition in [2] (IC50). Moreover, the Ki in data set [3] was above 100 µM; in data set [6], above 100 µM; in [7] it was above 100 µM; in data set [8] it was 0.0019 µM. Further, the solubility kinetic came out at 7.3 µM in data set [4] (setting [19]) and 2.5 µg/mL in data set [4] (setting [20]). Moreover, the “Primary Metabolism Site” value in data set [5] is on record as “Aniline”. For the same molecule, the “Primary Metabolite Mass” value in data set [5] is on record as “Parent + O”.
Turning to `COc1cc(Nc2ccnc3ccc(C(F)(F)F)cc23)cc(OC)c1OC` [Compound 13], in data set [1] (mouse liver microsomes with NADPH, mean average, n = 2), the “T1/2” value amounted to 6.4 min. Also, the Ki in data set [3] was 17 µM; in [6], 54 µM; in [7] (NAK family FRET screening, read-out: Binding displacement assay BMP2K Ki), above 100 µM. Also, in [5], the “Primary Metabolism Site” value was “Aniline”. Moreover, the “Primary Metabolite Mass” value in data set [5] is “Parent + O”.
Regarding `Nn1nnc2ccccc21` [ABT, 1-aminobenzotriazole], the “inhibition of CYP3A4 activity” value in data set [10] is given as 100%. Besides, in data set [11], the “residual activity CYP2C8” value is “up to 20%”. The “residual activity CYP2D6” value in data set [12] was “up to 20%”. Moreover, in [13], the “residual activity CYP1A2” value is reported as “up to 20%”. In [14], the “residual activity CYP2B6” value is reported as “up to 20%”. Also, the “residual activity CYP2C19” value in data set [15] was “up to 20%”. For the same molecule, in data set [16], the “inhibition of CYP2A6 activity” value was 100%. Moreover, in data set [17], the CYP2C9 activity remaining is on record as 60%.
For `Fc1ccc(Nc2ccnc3ccc(Br)cc23)c(F)c1` [Compound 11, 6-Bromo-N-(2,4-difluorophenyl)quinolin-4-amine], the “T1/2 Ratio” value in [1] (mouse liver microsomes) was 0.47. Further, in [1] (setting [18]), the half-life worked out at 3.2 min. The midpoint of inhibition in data set [2], the IC50, lay at 2.7 µM. The Ki amounted to 11 µM in [3], 5.7 µM in data set [6], 18 µM in [7] and 0.035 µM in data set [8]. Moreover, the values for the solubility kinetic in [4] (setting [19]) and in [4] (setting [20]) were 39.5 µM and 13.2 µg/mL, respectively. Further, in data set [5], the “Primary Metabolism Site” value is reported as “Aniline”. In addition, in [5], the “Primary Metabolite Mass” value is on record as “Parent − F + OH”.
In the case of `Brc1ccc2nccc(Nc3cccc4[nH]ncc34)c2c1` [Compound 32, 6-Bromo-N-(1H-indazol-4-yl)quinolin-4-amine], the “T1/2 Ratio” value in data set [1] (mouse liver microsomes) amounted to 0.32. Moreover, the half-life in [1] (setting [18]) amounted to 2.5 min. In addition, the “IC50 values in cells” value in data set [2] (live cell NanoBRET assay) is listed as “submicromolar”. In data set [2], this molecule yielded an IC50 of 0.76 µM. The Ki worked out at 19 µM in [3], 4.6 µM in [6], 7.4 µM in data set [7] and 0.014 µM in data set [8]. Moreover, the solubility kinetic in [4] (setting [19]) is 5.1 µM; in [4] (setting [20]), 1.7 µg/mL.

Values taken from article PMC6891286, “Towards the Development of an In vivo Chemical Probe for Cyclin G Associated Kinase (GAK)” (Molecules, 2019).
